Laboratory results taken from patent US10000474B2, “Histone deacetylase inhibitors and uses thereof” (MUSC FOUNDATION FOR RESEARCH DEVELOPMENT, priority 2014, dated 2018).
Structures can show the parent of a compound that is named as a salt.

Key:
Recombinant human HDAC5 = biological target: T1, Recombinant human HDAC5 (Homo sapiens, UniProt Q9UQL6); experiment: HDAC inhibitory assay, HDAC5 (Boc-Lys(Tfa)-AMC substrate); assay type: biochemical; conditions: test concentration not given; average of triplicate
T1 construct: purchased BPS Biosciences
T1 sequence (Q9UQL6 whole entry): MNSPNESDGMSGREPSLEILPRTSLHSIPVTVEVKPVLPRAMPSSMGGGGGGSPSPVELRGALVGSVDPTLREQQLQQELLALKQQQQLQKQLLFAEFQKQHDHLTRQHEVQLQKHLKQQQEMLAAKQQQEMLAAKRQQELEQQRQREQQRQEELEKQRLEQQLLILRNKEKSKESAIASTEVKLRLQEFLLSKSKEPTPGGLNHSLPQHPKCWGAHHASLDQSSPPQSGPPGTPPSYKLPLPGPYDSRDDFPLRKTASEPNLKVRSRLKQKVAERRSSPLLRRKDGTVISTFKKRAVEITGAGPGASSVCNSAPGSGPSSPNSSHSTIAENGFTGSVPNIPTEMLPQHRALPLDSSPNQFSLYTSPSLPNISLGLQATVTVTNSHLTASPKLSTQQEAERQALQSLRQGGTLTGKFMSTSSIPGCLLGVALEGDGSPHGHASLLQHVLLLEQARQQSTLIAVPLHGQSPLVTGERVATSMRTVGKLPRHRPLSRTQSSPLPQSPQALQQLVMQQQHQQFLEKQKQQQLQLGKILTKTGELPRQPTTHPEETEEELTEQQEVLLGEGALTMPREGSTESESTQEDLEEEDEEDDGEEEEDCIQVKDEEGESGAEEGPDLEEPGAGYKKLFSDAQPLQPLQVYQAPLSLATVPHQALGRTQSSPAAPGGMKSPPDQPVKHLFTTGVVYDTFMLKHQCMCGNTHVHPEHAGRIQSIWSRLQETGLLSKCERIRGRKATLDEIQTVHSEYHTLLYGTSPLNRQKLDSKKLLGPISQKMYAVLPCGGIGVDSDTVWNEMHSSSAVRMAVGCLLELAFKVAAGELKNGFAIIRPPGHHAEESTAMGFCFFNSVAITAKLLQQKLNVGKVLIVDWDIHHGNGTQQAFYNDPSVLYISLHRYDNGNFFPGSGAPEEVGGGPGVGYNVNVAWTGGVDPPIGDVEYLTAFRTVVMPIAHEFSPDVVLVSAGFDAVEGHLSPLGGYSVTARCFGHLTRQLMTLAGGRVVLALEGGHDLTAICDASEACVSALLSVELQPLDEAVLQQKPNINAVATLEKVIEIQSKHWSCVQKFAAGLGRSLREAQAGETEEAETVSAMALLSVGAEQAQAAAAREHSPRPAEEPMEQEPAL
Procedure: (§1) The compounds of Examples 1-12 and 14-16 were evaluated for their ability to act as inhibitors of human HDAC. The compound of Example 13 was not tested. Recombinant human HDAC1, HDAC2, HDAC3/NcoR2, HDAC5, HDAC6, HDAC8, HDAC9, HDAC10 and HDAC11 were purchased from BPS Biosciences. Recombinant human HDAC4 and HDAC7 were purchased from Millipore. The substrate Boc-Lys(Ac)-AMC and Boc-Lys(Tfa)-AMC were purchased from Bachem. The substrate Ac-RHK(Ac)K(Ac)-AMC was purchased from Enzo Life Sciences. Due to the different specific activities of each isoform, different amount of enzyme was used in each isoform screening assay. In these assays, trichostatin A (TSA), suberanilohydroxamic acid and diphenylacetohydroxamic acid (DPAHA) were employed as positive controls. All determinations were carried out in triplicate, and reported values were the average of these determinations, which in no case varied by more than 5%.
(§2) For evaluating the inhibition of class IIa HDACs (HDAC4, HDAC5, HDAC7 and HDAC9) and class IV HDAC (HDAC11), 10 μl of test samples were first incubated with 1 ng HDAC4 (specific activity=15400 pmol/min/μg), 5 ng HDAC5 (specific activity=2521 pmol/min/μg), 1 ng HDAC7 (specific activity=26340 pmol/min/μg), 5 ng HDAC9 (specific activity=3000 pmol/min/μg), and 500 ng HDAC11 (specific activity=1.8 pmol/min/μg) respectively. Then 25 μl of the Boc-Lys(Tfa)-AMC substrate (50 μM final concentration) was added and incubated at 37° C. for 30-60 min, and followed by adding 50 μl of developer. The last step was to read the samples in a SpectraMax M5 plate reader (Molecular Devices) at an excitation wavelength of 360 nm and an emission wavelength of 460 nm.

Recombinant human HDAC1 = biological target: T2, Recombinant human HDAC1 (Homo sapiens, UniProt Q13547); experiment: HDAC inhibitory assay, HDAC1 (Boc-Lys(Ac)-AMC substrate); assay type: biochemical; conditions: test concentration not given; average of triplicate
T2 construct: purchased BPS Biosciences
T2 sequence (Q13547 whole entry): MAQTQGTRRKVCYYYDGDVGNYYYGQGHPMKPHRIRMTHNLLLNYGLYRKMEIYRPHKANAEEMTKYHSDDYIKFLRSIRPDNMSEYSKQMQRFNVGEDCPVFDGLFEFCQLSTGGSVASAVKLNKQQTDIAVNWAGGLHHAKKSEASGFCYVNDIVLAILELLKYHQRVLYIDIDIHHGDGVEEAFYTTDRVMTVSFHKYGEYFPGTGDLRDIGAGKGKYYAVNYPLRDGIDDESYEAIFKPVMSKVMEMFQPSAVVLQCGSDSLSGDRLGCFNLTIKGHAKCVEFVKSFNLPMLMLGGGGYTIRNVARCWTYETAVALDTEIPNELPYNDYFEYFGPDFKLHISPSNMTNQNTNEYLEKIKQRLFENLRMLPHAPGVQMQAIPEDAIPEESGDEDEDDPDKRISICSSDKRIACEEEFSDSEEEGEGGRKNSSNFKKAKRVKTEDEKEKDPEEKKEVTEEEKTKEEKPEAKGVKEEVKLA
Procedure: as §1
(§3) Then 25 μl of the Boc-Lys(Ac)-AMC substrate (50 μM final concentration) was added and incubated at 37° C. for 30-60 min, and followed by adding 50 μl of developer (1 mg/ml trypsin and 1 μM TSA). The last step was reading the samples in a SpectraMax M5 plate reader (Molecular Devices) at an excitation wavelength of 360 nm and an emission wavelength of 460 nm.

Recombinant human HDAC10 = biological target: T3, Recombinant human HDAC10 (Homo sapiens, UniProt Q969S8); experiment: HDAC inhibitory assay, HDAC10 (Boc-Lys(Ac)-AMC substrate); assay type: biochemical; conditions: test concentration not given; average of triplicate
T3 construct: purchased BPS Biosciences
T3 sequence (Q969S8 1-669): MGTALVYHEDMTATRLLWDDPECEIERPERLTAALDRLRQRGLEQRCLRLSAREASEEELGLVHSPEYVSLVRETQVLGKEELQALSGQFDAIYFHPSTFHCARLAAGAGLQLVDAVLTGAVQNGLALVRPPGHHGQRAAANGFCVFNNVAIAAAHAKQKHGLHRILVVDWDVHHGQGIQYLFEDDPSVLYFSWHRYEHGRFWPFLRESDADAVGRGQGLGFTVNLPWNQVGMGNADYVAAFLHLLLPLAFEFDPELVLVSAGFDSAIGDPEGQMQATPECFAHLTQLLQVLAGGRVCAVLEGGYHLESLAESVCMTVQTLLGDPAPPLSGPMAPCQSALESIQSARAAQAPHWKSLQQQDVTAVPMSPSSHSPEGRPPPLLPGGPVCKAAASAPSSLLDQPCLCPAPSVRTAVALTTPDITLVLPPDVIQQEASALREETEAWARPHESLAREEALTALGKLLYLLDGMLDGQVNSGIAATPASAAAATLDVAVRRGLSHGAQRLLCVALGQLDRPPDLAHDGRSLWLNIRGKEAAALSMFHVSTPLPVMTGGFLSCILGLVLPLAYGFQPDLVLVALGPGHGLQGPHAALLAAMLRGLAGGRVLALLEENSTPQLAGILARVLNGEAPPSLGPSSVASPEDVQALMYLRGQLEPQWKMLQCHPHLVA
Procedure: as §1, §3

Recombinant human HDAC2 = biological target: T4, Recombinant human HDAC2 (Homo sapiens, UniProt Q92769); experiment: HDAC inhibitory assay, HDAC2 (Boc-Lys(Ac)-AMC substrate); assay type: biochemical; conditions: test concentration not given; average of triplicate
T4 construct: purchased BPS Biosciences
T4 sequence (Q92769 whole entry): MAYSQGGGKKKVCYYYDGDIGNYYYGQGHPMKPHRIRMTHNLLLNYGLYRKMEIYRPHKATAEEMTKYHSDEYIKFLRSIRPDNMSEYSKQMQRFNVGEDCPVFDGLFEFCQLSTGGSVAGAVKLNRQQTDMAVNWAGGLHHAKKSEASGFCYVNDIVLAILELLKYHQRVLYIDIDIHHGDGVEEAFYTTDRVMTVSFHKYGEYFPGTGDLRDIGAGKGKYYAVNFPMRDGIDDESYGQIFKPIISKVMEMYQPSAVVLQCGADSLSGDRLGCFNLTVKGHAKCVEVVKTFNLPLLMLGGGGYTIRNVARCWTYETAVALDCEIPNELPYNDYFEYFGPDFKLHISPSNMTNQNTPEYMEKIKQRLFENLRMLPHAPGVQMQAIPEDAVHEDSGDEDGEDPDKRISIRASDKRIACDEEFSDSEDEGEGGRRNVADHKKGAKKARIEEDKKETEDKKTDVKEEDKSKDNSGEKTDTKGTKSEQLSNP
Procedure: as §1, §3

Recombinant human HDAC9 = biological target: T5, Recombinant human HDAC9 (Homo sapiens, UniProt Q9UKV0); experiment: HDAC inhibitory assay, HDAC9 (Boc-Lys(Tfa)-AMC substrate); assay type: biochemical; conditions: test concentration not given; average of triplicate
T5 construct: purchased BPS Biosciences
T5 sequence (Q9UKV0 whole entry): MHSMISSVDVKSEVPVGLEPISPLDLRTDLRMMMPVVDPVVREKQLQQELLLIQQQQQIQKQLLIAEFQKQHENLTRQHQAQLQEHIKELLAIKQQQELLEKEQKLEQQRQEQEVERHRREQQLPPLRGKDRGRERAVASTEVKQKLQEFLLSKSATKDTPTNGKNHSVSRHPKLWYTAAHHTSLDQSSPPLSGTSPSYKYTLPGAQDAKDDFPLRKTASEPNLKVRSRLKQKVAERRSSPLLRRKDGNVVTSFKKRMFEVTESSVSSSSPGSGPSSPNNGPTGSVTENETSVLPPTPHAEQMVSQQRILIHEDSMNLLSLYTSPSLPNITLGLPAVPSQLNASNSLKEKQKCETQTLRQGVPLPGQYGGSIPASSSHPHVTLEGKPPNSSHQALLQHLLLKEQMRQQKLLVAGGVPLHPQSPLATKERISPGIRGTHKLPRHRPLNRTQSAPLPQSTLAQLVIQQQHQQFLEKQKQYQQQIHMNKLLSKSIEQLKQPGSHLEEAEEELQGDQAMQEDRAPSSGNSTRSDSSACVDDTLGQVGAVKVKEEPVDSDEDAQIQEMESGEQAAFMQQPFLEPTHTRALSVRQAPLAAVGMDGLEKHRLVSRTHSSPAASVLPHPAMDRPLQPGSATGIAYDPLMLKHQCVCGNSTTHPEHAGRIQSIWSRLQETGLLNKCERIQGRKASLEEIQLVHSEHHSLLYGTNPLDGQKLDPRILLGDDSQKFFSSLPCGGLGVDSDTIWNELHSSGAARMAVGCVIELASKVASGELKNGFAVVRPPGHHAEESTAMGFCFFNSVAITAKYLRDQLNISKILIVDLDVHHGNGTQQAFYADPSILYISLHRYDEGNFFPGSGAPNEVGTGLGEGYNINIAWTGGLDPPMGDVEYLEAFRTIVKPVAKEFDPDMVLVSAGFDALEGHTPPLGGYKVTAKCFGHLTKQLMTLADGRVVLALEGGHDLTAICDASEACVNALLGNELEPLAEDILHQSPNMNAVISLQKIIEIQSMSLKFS
Procedure: as §1, §2

[1] = Cell proliferation assay (MTS, cytotoxicity); assay type: cell-based; conditions: human; cell line not given (MV4-11 24 hours or MCF-7 72 hours); 1 μM to 100 μM; average of triplicate
Procedure: The cytotoxicity of representative compounds of the invention was determined by MTS assay, following the protocol of CellTiter 96® AQueous Non-Radioactive Cell Proliferation Assay (Promega). The cells used in this assay were MV4-11 (human, macrophage, biphenotypic B myelomonocytic leukemia) and MCF-7 (human, epithelial, adenocarcinoma). […] The MV-4-11 cells were incubated with the representative compounds for 24 hours at 37° C. in 5% CO2 while the MCF-7 cells were first seeded on the 96-well plate and were allowed to attach for 1 day and then were incubated with different concentrations of the representative compound for 72 hours at 37° C. in 5% CO2. After 24 or 72 hours 20 μl of MTS reagent solution was added into each well and the cells were incubated for another 4 hours at 37° C. under 5% CO2 environment. The absorbance was measured at 490 nm in a SpectraMax M5 plate reader (Molecular Devices) to determine the cell viability. The absorbance was directly proportional to the amount of viable cells. All determinations were carried out in triplicate, and reported values in Table 2 below were the average of these determinations, which in no case varied by more than 5%.

Row | SMILES | HDAC 5 inhibitory activity (Recombinant human HDAC5) | HDAC 1 inhibitory activity (Recombinant human HDAC1) | HDAC 10 inhibitory activity (Recombinant human HDAC10) | HDAC 2 inhibitory activity (Recombinant human HDAC2) | HDAC 9 inhibitory activity (Recombinant human HDAC9) | melting point | IC50 [1]
1 | O=C(NCCCCN1C(=O)c2ccccc2C1=O)c1coc(-c2ccccc2O)n1 [Example 9, N-(4-(1,3-Dioxoisoindolin-2-yl)butyl)-2-(2-hydroxyphenyl)oxazole-4-carboxamide] | 10.3% | 35.2% | 32.1% | 25.4% | 16.4% |  | 
2 | O=C(NCCC(c1ccccc1)c1ccccc1)c1coc(-c2ccccc2O)n1 [Example 4, N-(3,3-Diphenylpropyl)-2-(2-hydroxyphenyl)oxazole-4-carboxamide] | 11.3% | 35.9% | 69.8% | 28.7% | 28.2% |  | 
3 | O=C(Nc1ccccc1)c1ccc(CNC(=O)c2coc(-c3ccccc3O)n2)cc1 [Example 15, 2-(2-Hydroxyphenyl)-N-(4-(phenylcarbamoyl)benzyl)oxazole-4-carboxamide] | 0% | 47% | 56.3% | 41.3% | 24.3% |  | 
4 | O=C(NCCCCNCCC(c1ccccc1)c1ccccc1)c1coc(-c2ccccc2O)n1 [Example 12, N-(4-((3,3-Diphenylpropyl)amino)butyl)-2-(2-hydroxyphenyl)oxazole-4-carboxamide hydrochloride] | 6.9% | 32.2% | 26.2% | 19.7% | 16.4% |  | 
5 | O=C(O)c1ccc(CNC(=O)c2coc(-c3ccccc3O)n2)cc1 [Example 14, 4-((2-(2-Hydroxyphenyl)oxazole-4-carboxamido)methyl)benzoic acid] | 12.6% | 70.1% | 47.2% | 56.5% | 26.3% | 248 to 251 °C | 
6 | O=C(NCC(c1ccccc1)c1ccccc1)c1coc(-c2ccccc2O)n1 [Example 3, N-(2,2-Diphenylethyl)-2-(2-hydroxyphenyl)oxazole-4-carboxamide] | 0% | 43.9% | 35.7% | 34.8% | 21.6% | 206 to 208 °C | 40 µM
7 | O=C(Nc1ccc(-c2ccccc2)cc1)c1coc(-c2ccccc2O)n1 [Example 5, N-([1,1′-Biphenyl]-4-yl)-2-(2-hydroxyphenyl)oxazole-4-carboxamide] | 0% | 62.2% | 58.6% | 31.9% | 32.4% | 218 to 219 °C | 
8 | O=C(NCc1cccc2ccccc12)c1coc(-c2ccccc2O)n1 [Example 7, 2-(2-Hydroxyphenyl)-N-(naphthalen-1-ylmethyl)oxazole-4-carboxamide] | 3.2% | 47.8% | 44.5% | 45.2% | 15.5% |  | 
9 | O=C(NCc1ccc(-c2ccccc2)cc1)c1coc(-c2ccccc2O)n1 [Example 6, N-([1,1′-Biphenyl]-4-ylmethyl)-2-(2-hydroxyphenyl)oxazole-4-carboxamide] | 9.2% | 61.4% | 48.7% | 52.2% | 20.8% | 220 to 221 °C | > 100 µM
10 | O=C(NCCCCNC(=O)C(c1ccccc1)c1ccccc1)c1coc(-c2ccccc2O)n1 [Example 10, N-(4-(2,2-Diphenylacetamido)butyl)-2-(2-hydroxyphenyl)oxazole-4-carboxamide] | 1.4% | 27.2% | 56.5% | 0% | 9.0% |  | 
11 | O=C(NCCc1c[nH]c2ccccc12)c1coc(-c2ccccc2O)n1 [Example 8, N-(2-(1H-Indol-3-yl)ethyl)-2-(2-hydroxyphenyl)oxazole-4-carboxamide] | 0% | 41.7% | 44.8% | 36.0% | 18.4% |  | 
12 | O=C(CNC(=O)c1coc(-c2ccccc2O)n1)Nc1ccccc1 [Example 16, 2-(2-Hydroxyphenyl)-N-(2-oxo-2-(phenylamino)ethyl)oxazole-4-carboxamide] | 12.5% | 25.5% | 54.7% | 32.0% | 14.2% |  | 
13 | O=C(NC(c1ccccc1)c1ccccc1)c1coc(-c2ccccc2O)n1 [Example 2, N-Benzhydryl-2-(2-hydroxyphenyl)oxazole-4-carboxamide] | 14.9% | 68.0% | 47.1% | 54.1% | 33.3% | 226 to 227 °C | 7.6 µM
14 | O=C(Nc1ccccc1)c1coc(-c2ccccc2O)n1 [Example 1, 2-(2-Hydroxyphenyl)-N-phenyloxazole-4-carboxamide] | 9.3% | 62.5% | 48.8% | 29.5% | 20.5% | 173 to 174 °C | 25 µM
15 | O=C(NCCCCNC(=S)NCCC(c1ccccc1)c1ccccc1)c1coc(-c2ccccc2O)n1 [Example 11, N-(4-(3-(3,3-Diphenylpropyl)thioureido)butyl)-2-(2-hydroxyphenyl)oxazole-4-carboxamide] | 43.5% | 43.3% | 91.2% | 1.3% | 70.2% |  | 
